Test system: GADD153 mRNA
Assay: GADD153 mRNA level in UMSCC10b cells and cDDP-resistant sublines after cDDP exposure, RT-PCR
Type: cell-based, human
Experimental: In order to permit use of needle aspiration biopsies of tumors, the highly sensitive technique of RT-PCR rather than the less sensitive technique of Northern blot analysis was utilized throughout for quantitation of mRNA. The magnitude of the change in GADD153 mRNA level as a function of cisplatin (cDDP) concentration was determined by treating UMSCC10b cells with 0.1, 1, 10, or 100 μM cDDP for 1 h and quantifying GADD153 mRNA in untreated and treated cells harvested at 24 h by RT-PCR. The procedure is detailed in the attached examples. The results in FIG. 1 indicate that a concentration-dependent magnitude of increase in GADD153 mRNA levels reached 6-fold at the highest cDDP concentration tested. FIG. 2 depicts the time course of increase in GADD153 following a 1 h exposure to 100 μM cDDP. An increase in GADD153 mRNA level was evident at 12 h after cDDP exposure, and the peak occurred at 24 h followed by a decline to baseline levels by 96 h. β-ACTIN was used as an internal standard to normalize the data.
Without being held to a particular mechanism of action, the present inventors believe that the magnitude of increase in GADD153 mRNA level reflects the extent of tumor cell damage in a tumor treated with a chemotherapeutic agent. Supportive evidence was obtained using sublines of UMSCC10b selected for cDDP resistance. The parental cells, the 3-fold resistant subline UMSCC10b-Pt/S6 (15,16), and the 6-fold resistant subline UMSCC10b-Pt/S15 (15,16) were exposed to 2, 7, 12 μM cDDP for 1 h. These levels of exposure correspond to the IC10, IC50, and IC70 for the parental cell line, respectively.
To assure that the resistant variants had not lost their capacity to activate the GADD153 gene, and to validate the change in GADD153 level as a molecular marker of tumor injury in drug resistant as well as sensitive cells, the effect of cDDP applied at equitoxic concentrations was compared between the parental cells and the two resistant sublines.
To determine the time course of the change in GADD153 mRNA level, UMSCC10b cells were incubated with 100 μM cDDP for 1 h and total RNA was extracted at 0, 1, 2, 6, 12, 24, 48, 72 and 96 h after treatment. To analyze the effect of cDDP concentration on the expression of GADD153 , UMSCC10b cells were incubated for 1 h with various cDDP concentrations (0, 0.1, 1, 10, 100 and 1000 μM) and RNA was extracted 24 h after cDDP exposure.
UMSCC10b cells were harvested in 10 ml of denaturing solution (4 M guanidinium thiocyanate, 25 mM sodium citrate, pH 7, 0.5% sarcosyl, and 0.1 M 2-mercaptoethanol. After adding 1 ml of 2 M sodium acetate (pH 4), 10 ml of water-saturated phenol (pH 4) and 2 ml of chloroform:isoamyl alcohol (49:1) to the denatured cells, they were mixed thoroughly, placed on ice for 15 min, and centrifuged at 2800 rpm for 20 min at 4° C. The aqueous phase was collected and mixed with 10 ml of isopropyl alcohol, placed for 1 h at −20° C. and centrifuged. The pellet was dissolved in 1.8 ml of denaturing solution and 2 ml of isopropyl alcohol, placed for 1 h at −20° C. and centrifuged. The pellet was washed with 1 ml of 80% ethanol and then centrifuged at 5000 rpm for 10 min at room temperature. The RNA pellet was dried for 20 min in a tissue culture hood and resuspended in 100 μl of DEPC-treated water. Of this solution, 50 μl was used immediately for cDNA synthesis.
GADD153 message levels were quantified using a modification of the technique reported by Horikoshi et al (20). Total RNA acquired from the biopsies or xenografts was reverse-transcribed using random hexamers to produce cDNA (20,21,22). Serial dilutions of the CDNA were made and 5 μl of each dilution was placed in a sterile 0.5 ml Eppendorf tube. […]

[1] = UMSCC10b cells, 1 h exposure to 100 μM cDDP

[NH2][Pt]([NH2])([Cl])[Cl] [cDDP, cisplatin]
magnitude of the increase in GADD153 mRNA level (3-fold resistant variant UMSCC10b-Pt/S6, 2, 7, 12 μM cDDP for 1 h (equimolar)): lower than in the parental cells
expression of GADD153 (6-fold resistant variant UMSCC10b-Pt/S15, 2, 7, 12 μM cDDP for 1 h (equimolar)): did not increase above its baseline level
time at which increase in GADD153 mRNA level was evident [1]: 12 h
time of decline of GADD153 mRNA to baseline levels [1]: ≤ 96 h
time of peak GADD153 mRNA level [1]: 24 h
magnitude of increase in GADD153 mRNA levels (UMSCC10b cells, 1 h exposure, highest cDDP concentration tested (100 μM), harvested at 24 h): 6 fold
change in expression of GADD153 at equitoxic concentrations (parental cells and two resistant sublines, IC10, IC50, IC70): no difference between the cell lines

Source: patent US6447997B1, “Gene coding for GADD153 as a clinical diagnostic and prognostic in cancer therapy” (Research Development Foundation, priority 1997, dated 2002)
